According to patent US20030054332A1, “Markers for evaluating estrogenic activity” (priority 2001, published 2003):

Experiments:
[1] = tested on: cyclin A1 in ERβ-enhanced vascular endothelial cells; experiment: Cyclin A1 RNase protection, ERβ-enhanced vascular endothelial cells; assay type: cell-based, human; conditions: 100 nM E2, 1 μM ICI 164384, 10 nM DES
Method: (§1) In a similar experiment, RNase protection assays were performed using estrogen receptor α- and estrogen receptor β-enhanced vascular endothelial cells. […] The results are presented in FIGS. 4A and 5B, which show the levels of various cyclins in estrogen receptor α- and estrogen receptor β-enhanced cells, respectively. Arrows indicate mRNA for each indicated cyclin. […] Cyclin A1 is the only cyclin in the panel increased by estradiol treatment.
(§2) Cyclin A1 expression and the effect of estradiol on expression in a number of immortalized and primary cells lines was further evaluated as described above.

[2] = tested on: cyclin A1 in ERα-enhanced vascular endothelial cells; experiment: Cyclin A1 RNase protection, ERα-enhanced vascular endothelial cells; assay type: cell-based, human; conditions: for cyclin A1 mRNA (in words): ERα-enhanced cells, 100 nM E2, 1 μM ICI 164384, 10 nM DES
Method: RNA was prepared using standard methods and RNase protection experiments were performed to evaluate the time course of cyclin A1 induction.
as §1, §2

[3] = tested on: estrogen-regulated genes in VE-ERα cells; experiment: Multigene RNase protection assay (RPA) with VE-ERα cells; assay type: cell-based, human; conditions: for effect on basal gene expression / induction of expression of estrogen-regulated genes: 5 dose 0.1 nM-1000 nM for 24 hours
Excerpt: Another preferred assay is an RNase protection assay (RPA), which can be used to examine a panel of genes identified as estrogen-regulated in VE-ERα cells. The RPA is described in Gilman, 1993, In Current Protocols in Molecular Biology, Vol. 1 (Ausubel, F. M., R. Brent, R, E. Kingston, D. D. Moore, J. G. Seidman, J. A. Smith and K. Stuhl, eds.) pp. 4.7.1-4.7.8, John Wiley and Sons, Inc., New York, incorporated herein by reference in its entirety. Within this assay, which may be performed according to standard protocols, multiple probes can be used in a single reaction that requires as little as 1 μg of total RNA, resulting in high information content and a molecule profile for each compound on ERα. regulated gene expression in vascular endothelial cells. The RPA assay is very sensitive and is therefore able to detect low copy messages and distinguish low fold modulations typical of estrogen. This approach has a number of advantages over a reporter assay. The endogenous genes in the multigene assay will contain all endogenous gene regulatory elements and will not be restricted to activation occurring through an ERE element. Since VE-ERα cells are human cells that have been characterized and determined to maintain endothelial specific phenotypic markers and functions, tissue selective ER regulation can be investigated.
An RNase protection assay (RPA) was used to examine a panel of genes identified as estrogen-regulated in VE-ERα cells.
(§3) In a further experiment, compounds known to have estrogen-like activity based on ER binding and ERE transactivation (ERE luciferase reporter in Chinese hamster ovary cells expressing transfected ERα) were evaluated. […] In order to confirm that these active compounds were working in an ER dependent manner, VE103-ERα cells were treated with a single dose of compound and increasing doses of ICI 164,384. […] All results are presented as percent of estrogen. PGI2 synthase numbers were based on EC50 from a 5-point dose response like that shown for estrogen in FIG. 5.

MCF-7 cells = experiment: Estrogen regulation of marker genes in MCF-7 cells; assay type: cell-based
[4] = tested on: VEGF mRNA in VE-ERα cells; experiment: VEGF mRNA expression in VE-ERα cells by RNAse protection analysis; assay type: cell-based, human; conditions: VE-ERα cells treated with estrogen; RNAse protection analysis (FIG. 1, 100 nM)
Method: Estrogen receptor α (ERα)-enhanced vascular endothelial cells were prepared by infecting primary vascular endothelial cells with a retrovirus expressing human papillomavirus E6/E7, which leads to cellular immortalization. The retrovirus expression vector LXSN16E6E7 contains the immortalizing oncogenes E6 and E7 from human papilloma virus type 16 and a neomycin resistance gene. (Halbert, C. L., Demers, F. W., and Galloway, D. A. 1991. J Virol. 65: 473-478 (1)). This vector was transfected into PA317 cells, an amphotrophic packaging cell line, by calcium phosphate precipitation. Stably clonal lines were established by G418 selection. A negative control line expressing the empty retrovirus LXSN was established. Viruses produced by the clonal lines of PA317 were used to infect second passage primary human aortic endothelial cells obtained from Cell Applications, Inc., San Diego, Calif. Following infection and selection with G418, the LXSN infected cells ceased growth after approximately 7 passages where the LXSN16E6E7 infected cells were growth extended beyond 20 passages.
The cells expressed the expected endothelial markers. The levels of ERα were increased by infection of the cells with a retrovirus that expresses recombinant ERα (Green, S. et al, Nature 1986 320: 134-137). […]

[5] = tested on: cyclin A1 in Vascular smooth muscle cells; experiment: Cyclin A1 expression and induction, vascular smooth muscle cells; assay type: cell-based; set-up: key: (+) indicates detectable cyclin A1; (−) indicates no detectable cyclin A1 expression; conditions: immortalized human cells
Excerpt: as §2

[6] = tested on: cyclin A1 in Vascular endothelial cells; experiment: Cyclin A1 expression and induction, vascular endothelial cells; assay type: cell-based; set-up: key: (+) indicates detectable cyclin A1; (−) indicates no detectable cyclin A1 expression; conditions: immortalized human cells
Excerpt: as §2

[7] = tested on: ERE luciferase reporter in Chinese hamster ovary cells expressing transfected ERα; experiment: ERE transactivation (ERE luciferase reporter in Chinese hamster ovary cells expressing transfected ERα); assay type: cell-based
Method: as §3

[8] = tested on: cyclin A1 in Primary vascular smooth muscle cells; experiment: Cyclin A1 expression and induction, primary vascular smooth muscle cells; assay type: cell-based; set-up: key: (+) indicates detectable cyclin A1; (−) indicates no detectable cyclin A1 expression
Excerpt: as §2

VE-ERα cells = experiment: Incyte UniGEM estrogen regulated gene profile of VE-ERα cells; assay type: cell-based, human; conditions: VE-ERα cells treated for 6 hours vs ethanol
Method: The Incyte UniGEM technology was used to survey a large panel of genes and to establish the estrogen regulated gene profile of the VE-ERα cells. VE-ERα cells were treated for 6 hours with 17-β estradiol or vehicle control (ethanol). Poly (A) RNA was isolated and this RNA was used to synthesize Cy3 or Cy5 labeled cDNA for simultaneous probing of Incyte UniGem V. Reciprocal labeling was done and two UniGems were probed (for one GEM the estradiol probe was labeled with Cy3 and ethanol probe with Cy5 and this labeling was reversed for the second GEM). UniGem V contains approximately 8500 human sequences including both known genes and ESTs. More than 20 genes were identified which were regulated more than 2 fold on both UniGEMs (Table I, indicated as UniGem. The sequence indicated in Table I with RF were identified by RNA fingerprinting, a more stringent version of differential display. RNA fingerprinting is based upon the use of arbitrary primers and primer combinations to carry out PCR amplifications from cDNA populations derived from cells or tissues of interest. The process generates a series of radioactively-labeled fragments which can be resolved by PAGE and visualized by autoradiography. (Mathieu-Daude, et al. Methods Enzymol 1999;303:309; Stone, et al., Nucleic Acids Res 1994 Jul 11;22(13):2612-8.)

[9] = tested on: prostacyclin I2 synthase in VE-ERα cells; experiment: Estrogen treatment time course, RNase protection analysis of prostacyclin I2 synthase in VE-ERα cells; assay type: cell-based, human; conditions: at 24 hours
Method: This step is not necessary with genes identified by the UniGem where an estrogen treatment time course was performed. RNA was isolated and RNase protection analysis was used to determine estrogen responses (FIG. 2). All 20 of the genes examined were confirmed to be regulated to a higher fold modulation at 24 hours than the 6 hours used for the UniGem experiment.
The genes identified were relevant genes for vascular endothelial cells and in some cases consistent with the known effects of estrogen in the cardiovascular system. […] This enzyme is required for that last step in the synthesis of prostacyclin (PGI2). […] Another relevant gene was natriuretic peptide receptor B (NPR-B) which is the receptor for C-type natriuretic peptide (CNP), an endothelium dependent vasodilator.

cyclin A1 in Osteoblasts = experiment: Cyclin A1 expression and induction, osteoblasts; assay type: cell-based; set-up: key: (+) indicates detectable cyclin A1; (−) indicates no detectable cyclin A1 expression; conditions: immortalized human cells
Excerpt: as §2

[10] = tested on: cyclin A1 in Endometrial epithelial cells; experiment: Cyclin A1 expression and induction, endometrial epithelial cells; assay type: cell-based; set-up: key: (+) indicates detectable cyclin A1; (−) indicates no detectable cyclin A1 expression; conditions: immortalized human cells
Excerpt: as §2

[11] = tested on: cyclin A1 in Primary vascular endothelial cells; experiment: Cyclin A1 expression and induction, primary vascular endothelial cells; assay type: cell-based; set-up: key: (+) indicates detectable cyclin A1; (−) indicates no detectable cyclin A1 expression
Excerpt: as §2

[12] = tested on: cyclin A1 in MCF-7 (mammary cancer cell line); experiment: Cyclin A1 expression and induction, MCF-7; assay type: cell-based; set-up: key: (+) indicates detectable cyclin A1; (−) indicates no detectable cyclin A1 expression
Excerpt: as §2

CCCCN(C)C(=O)CCCCCCCCCC[C@@H]1Cc2cc(O)ccc2[C@H]2CC[C@]3(C)[C@@H](O)CC[C@H]3[C@H]12 [ICI 164,384]
cyclin A1 mRNA (in words) [1]: inhibits this response
cyclin A1 mRNA (in words) [2]: inhibits this response
effect on basal gene expression [3]: lowered basal expression of some genes at higher concentrations
induction of expression of estrogen-regulated genes [3]: showed no induction of gene expression
inhibition of gene activation by active compounds ([3]; VE103-ERα cells, single dose of compound and increasing doses of ICI 164,384): able to inhibit competitively the activation of these genes

C[C@]12CC[C@@H]3c4ccc(O)cc4CC[C@H]3[C@@H]1CC[C@@H]2O [17-β-estradiol]
cyclin A1 mRNA (in words) [1]: induction of cyclin A1 mRNA can occur
regulation of ATP sulfurylase/APS kinase, podocalyxin (MCF-7 cells): found to be regulated by estrogen
regulation of clusterin (MCF-7 cells): not regulated by estrogen in a similar fashion
regulation of prostacyclin I2 synthase and natriuretic peptide receptor B (NPR-B) (MCF-7 cells): not regulated by estrogen
expression of vascular endothelial growth factor (VEGF) mRNA [4]: increased three fold
time to increase of cyclin A1 mRNA ([2]; 100 nM 17-β-estradiol vs 0.1% ethanol): ≤ 3 h
cyclin A1 mRNA (in words) [2]: induction of cyclin A1 mRNA can occur
Cyclin A1 expression, Estradiol [5]: −
Cyclin A1 expression, Estradiol [6]: +
ERE transactivation [7]: 100% of estrogen
induction of expression of estrogen-regulated genes [3]: induced expression
PG I2 synthase ([3]; VE-ERα Cells, based on EC50 from a 5-point dose response): 100% of estrogen
Cyclin A1 expression, Estradiol [8]: −
regulation of more than 20 genes on both UniGEMs (VE-ERα cells): more than 2 fold
prostacyclin I2 synthase upregulation [9]: 4 fold
Cyclin A1 expression, Estradiol (cyclin A1 in Osteoblasts): −
Cyclin A1 expression, Estradiol [10]: +
Cyclin A1 expression, Estradiol [11]: +
Cyclin A1 expression, Estradiol [12]: −

CC/C(=C(/CC)c1ccc(O)cc1)c1ccc(O)cc1 [DES, diethylstilbestrol]
cyclin A1 mRNA (in words) [1]: mimics the estradiol effect
cyclin A1 mRNA (in words) [2]: mimics the estradiol effect

O=C(c1ccc(OCCN2CCCCC2)cc1)c1c(-c2ccc(O)cc2)sc2cc(O)ccc12 [Raloxifene]
effect on basal gene expression [3]: repressing rather than inducing gene expression
induction of expression of estrogen-regulated genes [3]: showed no clear induction of any of the genes

CC/C(=C(\c1ccccc1)c1ccc(OCCN(C)C)cc1)c1ccccc1 [tamoxifen]
induction of expression of estrogen-regulated genes [3]: showed no clear induction of any of the genes
